Some test systems named below: DU-145; SK-MEL-28; MOLT-4; CAKI-1; HOP-92; Malme-3M; A549; OVCAR-3; HT-29; OVCAR-5; UACC-257; PC-3; OVCAR-4; CCRF-CEM; K562; HCT-116; HCT-15; TK-10; SR; SF-295.
What all share (assay): NCI tumour cell line growth inhibition, 48 h

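Protocol summary: plate cells (96-well), add compound at 5 concentrations, incubate 48 h, interpolate endpoints linearly. Here, GI50 denotes the concentration required for 50% inhibition of growth.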 Calls of active or inactive are those of the source. Rule as the data show it: active = GI50 up to about 1.1 µM and inactive = higher.

In the case of `c1nc(NCCc2c[nH]cn2)c2nc[nH]c2n1`, the GI50 in the assay with DU-145, with SK-MEL-28, in the assay on MOLT-4, in the assay with CAKI-1, with HOP-92 and in the assay on Malme-3M was > 100 µM (inactive) throughout. The GI50 in the assay on A549, in the assay with OVCAR-3, with HT-29, in the assay on OVCAR-5, with UACC-257 and in the assay on PC-3 was > 100 µM (inactive) each time. For the same compound, the GI50 in the assay with OVCAR-4 is > 100 µM (inactive); in the assay on CCRF-CEM, > 100 µM (inactive); in the assay with K562, > 100 µM (inactive); in the assay on HCT-116, > 100 µM (inactive); with HCT-15 it was greater than 100 µM; in the assay on TK-10, > 100 µM (inactive). Further, the GI50 in the assay on SR and in the assay with SF-295 was > 100 µM (inactive) in each case.

As for `CC[C@H](C)c1occ2c(O)c(C(=O)O)c(=O)cc-2c1C`, the GI50 is 34.9 µM (inactive) with DU-145; 19.8 µM (inactive) in the assay with MOLT-4; 37.8 µM (inactive) in the assay on CAKI-1; 21.8 µM (inactive) with HOP-92; 17.5 µM (inactive) in the assay on Malme-3M; 30 µM (inactive) with A549. In addition, the GI50 in the assay on OVCAR-3 is 19.5 µM (inactive); with HT-29, 25.7 µM (inactive); in the assay on OVCAR-5 it was 19.5 µM (inactive); in the assay with UACC-257, 30.3 µM (inactive); in the assay with PC-3, 33.5 µM (inactive); in the assay on OVCAR-4, 24.8 µM (inactive). In addition, the GI50 in the assay with CCRF-CEM was 17.5 µM (inactive); with K562, 29.1 µM (inactive); in the assay with HCT-116 it was 18.8 µM (inactive); with HCT-15, 16.7 µM; with TK-10, 40.8 µM (inactive); in the assay on SR, 21.9 µM (inactive). Moreover, the GI50 with SF-295 is 31.3 µM (inactive).

Regarding `N#Cc1c(-c2ccc([N+](=O)[O-])cc2)cc(-c2ccc(Nc3ccnc4cc(Cl)ccc34)cc2)nc1N`, the GI50 was 11 µM (inactive) in the assay with DU-145; 6.25 µM (inactive) in the assay with SK-MEL-28; 1.81 µM (inactive) with MOLT-4; 20.9 µM (inactive) in the assay on CAKI-1; 29.7 µM (inactive) with HOP-92; 21.5 µM (inactive) with Malme-3M. Moreover, the GI50 was 3.98 µM (inactive) in the assay on A549; 6.67 µM (inactive) in the assay with OVCAR-3; 2.71 µM (inactive) in the assay on HT-29; 30.8 µM (inactive) with OVCAR-5; 26.5 µM (inactive) in the assay on UACC-257; 6.49 µM (inactive) with PC-3. Also, the GI50 with OVCAR-4 is 2.82 µM (inactive); in the assay on CCRF-CEM, 1.11 µM (active); in the assay with K562, 4.56 µM (inactive); in the assay on HCT-116, 2.3 µM (inactive); with HCT-15 it was 2.76 µM; with TK-10 it was 25.9 µM (inactive). The figures for the GI50 with SR and in the assay on SF-295 were 0.399 µM (active) and 19 µM (inactive), respectively.

In the case of `CCCCNC(=S)Nc1nc(C(=O)NNC(=O)c2ccccc2)cs1`, the GI50 in the assay with DU-145 was 19.6 µM (inactive); with MOLT-4, 20.5 µM (inactive); in the assay with CAKI-1, 20.9 µM (inactive); in the assay with HOP-92, 40.2 µM (inactive); in the assay with Malme-3M, 18.7 µM (inactive); in the assay with A549, 20.4 µM (inactive). The GI50 is 6.14 µM (inactive) in the assay with OVCAR-3; 24 µM (inactive) in the assay on HT-29; 17.6 µM (inactive) in the assay with OVCAR-5; 17.9 µM (inactive) in the assay with UACC-257; 15.5 µM (inactive) in the assay with PC-3; 9.29 µM (inactive) in the assay on OVCAR-4. Moreover, the GI50 in the assay on CCRF-CEM was 27.9 µM (inactive); in the assay with K562 it was 44.5 µM (inactive); in the assay on HCT-116 it was 13.1 µM (inactive); in the assay with HCT-15 it was 6 µM; with TK-10, 19.6 µM (inactive); in the assay on SR, 29.6 µM (inactive). In the assay with SF-295, the GI50 is 15.2 µM (inactive).

Consider `CCOC(=O)c1nc2cc(C(F)(F)F)ccc2nc1Oc1ccc(C(=O)OC)cc1`, for which the GI50 with DU-145, in the assay with SK-MEL-28, in the assay on MOLT-4, in the assay on CAKI-1, in the assay on HOP-92 and in the assay on Malme-3M was > 100 µM (inactive) each time. Further, the GI50 in the assay on A549 is > 100 µM (inactive); in the assay with OVCAR-3 it was > 100 µM (inactive); in the assay with OVCAR-5 it was > 100 µM (inactive); in the assay on UACC-257, > 100 µM (inactive); in the assay on PC-3 it was > 100 µM (inactive); with OVCAR-4, 78.7 µM (inactive). For the same compound, the GI50 with CCRF-CEM is 97.1 µM (inactive); with K562, > 100 µM (inactive); with HCT-116 it was > 100 µM (inactive); with HCT-15, 51.5 µM; with TK-10 it was > 100 µM (inactive); in the assay on SR, > 100 µM (inactive). Besides, in the assay on SF-295, the GI50 was > 100 µM (inactive).

Turning to `C/C(=N\O)c1ccc(OCc2cc(C(F)(F)F)cc(C(F)(F)F)c2)cc1`, the GI50 in the assay with DU-145 was > 100 µM (inactive); with SK-MEL-28, 61.9 µM (inactive); in the assay on MOLT-4, 14.3 µM (inactive); with CAKI-1, 78.2 µM (inactive); in the assay with HOP-92 it was 17.6 µM (inactive); in the assay with Malme-3M, 41 µM (inactive). The GI50 in the assay on A549 was 46.1 µM (inactive); in the assay with OVCAR-3, > 100 µM (inactive); in the assay with HT-29 it was 20.1 µM (inactive); in the assay with OVCAR-5, > 100 µM (inactive); with UACC-257 it was 38.5 µM (inactive); in the assay with PC-3 it was 34.1 µM (inactive). In addition, the GI50 is 53.8 µM (inactive) with OVCAR-4; 15.9 µM (inactive) in the assay on CCRF-CEM; 33 µM (inactive) in the assay on K562; 31.3 µM (inactive) with HCT-116; 30.5 µM in the assay on HCT-15; > 100 µM (inactive) in the assay on TK-10. In addition, the GI50 in the assay with SR was 39.4 µM (inactive); with SF-295, 55.2 µM (inactive).

Turning to `COc1ccc(CN(Cc2ccc(OC)cc2)C(=O)CC2(O)C=CCC2)cc1` (configuration not stated), the GI50 is > 100 µM (inactive) with DU-145; > 100 µM (inactive) with SK-MEL-28; 31.6 µM (inactive) with MOLT-4; 46.7 µM (inactive) with CAKI-1; > 100 µM (inactive) with HOP-92; > 100 µM (inactive) in the assay with Malme-3M. Also, the GI50 in the assay on A549 was 46.2 µM (inactive); in the assay with OVCAR-3, 98.2 µM (inactive); in the assay with HT-29, 66.7 µM (inactive); in the assay on OVCAR-5, > 100 µM (inactive); with UACC-257, 43.4 µM (inactive); in the assay with PC-3 it was 28 µM (inactive). Further, the GI50 in the assay on OVCAR-4 is 80 µM (inactive); in the assay on CCRF-CEM it was 47.6 µM (inactive); with K562, 34 µM (inactive); in the assay with HCT-116, 55.3 µM (inactive); with HCT-15 it was 78.7 µM; in the assay on TK-10, > 100 µM (inactive). In addition, the GI50 in the assay with SR was 36.1 µM (inactive); with SF-295 it was 56.9 µM (inactive).

In the case of `COC(=O)c1ccccc1/C=C1/Cc2ccccc2C1=O`, the GI50 was > 100 µM (inactive) with DU-145; 65.5 µM (inactive) in the assay on SK-MEL-28; 24.4 µM (inactive) in the assay with MOLT-4; 25.8 µM (inactive) with CAKI-1; 61.1 µM (inactive) in the assay with HOP-92; 50.5 µM (inactive) in the assay on Malme-3M. The GI50 in the assay on A549 is 50.7 µM (inactive); in the assay on OVCAR-3, 23.8 µM (inactive); with HT-29 it was 37.9 µM (inactive); with OVCAR-5, 33.3 µM (inactive); with UACC-257, 24 µM (inactive); in the assay with PC-3, 48.2 µM (inactive). Further, the GI50 with OVCAR-4 is 34.4 µM (inactive); in the assay on CCRF-CEM, 31.3 µM (inactive); with K562, 32.7 µM (inactive); in the assay on HCT-116 it was 24.4 µM (inactive); in the assay with HCT-15 it was 23.4 µM; in the assay on TK-10, > 100 µM (inactive). Moreover, the GI50 with SR is 22.2 µM (inactive); in the assay on SF-295, 44.1 µM (inactive).

On to `CC(=O)OC(C)(C)CCC(=O)[C@](C)(O)[C@H]1[C@H](O)C[C@@]2(C)[C@@H]3CCc4c(cc(OC5OC(CO)C(O)C(O)C5O)c(O)c4C)C3(C)C(=O)C[C@]12C` (some centres not stated), for which the GI50 in the assay with DU-145, in the assay with SK-MEL-28, in the assay with MOLT-4, with CAKI-1, in the assay with HOP-92 and in the assay with Malme-3M was > 100 µM (inactive) each time. The GI50 in the assay on A549, in the assay with OVCAR-3, in the assay on HT-29, in the assay with OVCAR-5, in the assay on UACC-257 and in the assay on PC-3 was > 100 µM (inactive) throughout. The GI50 in the assay on OVCAR-4 was > 100 µM (inactive); with CCRF-CEM it was > 100 µM (inactive); in the assay with K562, > 100 µM (inactive); in the assay on HCT-116, > 100 µM (inactive); in the assay on HCT-15 it was greater than 100 µM; in the assay on TK-10, > 100 µM (inactive). Also, the GI50 in the assay with SR and in the assay on SF-295 was > 100 µM (inactive) in each case.

For `C=CC[C@]12C=C(OC)[C@@H](O)[C@](OC)(C(c3cc(OC)c4c(c3)OCO4)[C@H]1C)[C@H]2OC(C)=O` (some centres not stated), the GI50 in the assay on DU-145 was > 100 µM (inactive); in the assay with SK-MEL-28, > 100 µM (inactive); in the assay with MOLT-4, 67.5 µM (inactive); in the assay on CAKI-1, > 100 µM (inactive); in the assay on HOP-92 it was 83.6 µM (inactive); with Malme-3M it was > 100 µM (inactive). Besides, the GI50 in the assay with A549 was > 100 µM (inactive); in the assay with OVCAR-3, > 100 µM (inactive); in the assay on HT-29, > 100 µM (inactive); with OVCAR-5, > 100 µM (inactive); in the assay on UACC-257, > 100 µM (inactive); in the assay on PC-3, 62.5 µM (inactive). Further, the GI50 in the assay with OVCAR-4 was 69.2 µM (inactive); in the assay on CCRF-CEM, > 100 µM (inactive); with K562, > 100 µM (inactive); in the assay with HCT-116 it was > 100 µM (inactive); in the assay with HCT-15 it was greater than 100 µM; with TK-10, > 100 µM (inactive). Moreover, the GI50 in the assay with SR and in the assay with SF-295 was > 100 µM (inactive) each time.

Source of the values: ChEMBL document CHEMBL1201862, “PubChem BioAssay data set” (2004).
